# Key:
# Type in all cases: binding
# [1] = ITC titration with D-glucose
# Protocol: (§1) ITC experiments were carried out at 298 K. Saccharide solutions were prepared in HPLC-grade water with 10 mM phosphate buffer solution (pH 7.4) and allowed to equilibrate overnight if necessary. The sample cell was charged with a known concentration of receptor solution in HPLC-grade water with 10 mM phosphate buffer solution at pH 7.4 (typically 50 µM - 200 µM). Then, aliquots (typically 1.0 µL) of carbohydrate solution were added and the evolution of heat was followed as a function of time. Heats of dilution were measured by injecting the same carbohydrate solution into HPLC-grade water with 10 mM phosphate buffer solution at pH 7.4, using identical conditions. For every addition, the heat of dilution was subtracted from the heat of binding using a MicroCal software programme implemented in ORIGIN 7.0. This gave an XY matrix of heat vs. total guest concentration. This matrix was then imported into a specially written Excel programme to fit the data to a 1:1 binding model to give a Ka. ΔG can be derived from Ka and thus ΔS can be derived from ΔH and ΔG using common thermodynamic equations. […] This method consistently produced more accurate fits than fitting the data to an S-curve, as in the MicroCal software (S-curves are typically not observed for binding constants below ~104 - 105 M^-1).
# [2] = ITC titration with methyl β-D-glucoside
# Protocol: as §1
# [3] = ITC titration with myo-inositol; settings: 10 mM phosphate buffer pH 7.4, 298 K
# Protocol: (§2) ITC experiments were carried out at 298 K. Saccharide solutions were prepared in HPLC-grade water with 10 mM phosphate buffer solution (pH 7.4) and allowed to equilibrate overnight if necessary. The sample cell was charged with a known concentration of receptor solution in HPLC-grade water with 10 mM phosphate buffer solution at pH 7.4 (typically 50 µM - 200 µM). Then, aliquots (typically 1.0 µL) of carbohydrate solution were added and the evolution of heat was followed as a function of time. Heats of dilution were measured by injecting the same carbohydrate solution into HPLC-grade water with 10 mM phosphate buffer solution at pH 7.4, using identical conditions. For every addition, the heat of dilution was subtracted from the heat of binding using a MicroCal software programme implemented in ORIGIN 7.0. This gave an XY matrix of heat vs. total guest concentration. This matrix was then imported into a specially written Excel programme to fit the data to a 1:1 binding model to give a Ka. ΔG can be derived from Ka and thus ΔS can be derived from ΔH and ΔG using common thermodynamic equations.
# [4] = ITC titration with D-glucuronic acid; settings: 10 mM phosphate buffer pH 7.4, 298 K
# Protocol: (§3) Isothermal Titration (Micro)Calorimetry (ITC) experiments were performed on a MicroCal iTC200 microcalorimeter and/or a MicroCali VP-ITC. ITC experiments were carried out at 298 K. Saccharide solutions were prepared in HPLC-grade water and allowed to equilibrate overnight if necessary. The sample cell was charged with a known concentration of receptor solution in HPLC-grade water (typically 50 µM - 200 µM). Then, aliquots (typically 1.0 µL) of carbohydrate solution were added and the evolution of heat was followed as a function of time. Heats of dilution were measured by injecting the same carbohydrate solution into HPLC-grade water, using identical conditions. For every addition, the heat of dilution was subtracted from the heat of binding using a MicroCal software programme implemented in ORIGIN 7.0. This gave an XY matrix of heat vs. total guest concentration. This matrix was then imported into a specially written Excel programme to fit the data to a 1:1 binding model to give a Ka. ΔG can be derived from Ka, and ΔS can be derived from ΔH and ΔG using common thermodynamic equations. This method of analysis was used in conjunction with fits for Ka calculated using the MicroCal software to corroborate the results obtained.
# (§4) Isothermal Titration MicroCalorimetry (ITC) experiments were performed on a MicroCal iTC200 microcalorimeter and/or a MicroCali VP-ITC. ITC experiments were carried out at 298 K. Saccharide solutions were prepared in HPLC-grade water with 10 mM phosphate buffer solution (pH 7.4) and allowed to equilibrate overnight if necessary. The sample cell was charged with a known concentration of receptor solution in HPLC-grade water with 10 mM phosphate buffer solution at pH 7.4 (typically 50 µM - 200 µM). Then, aliquots (typically 1.0 µL) of carbohydrate solution were added and the evolution of heat was followed as a function of time. Heats of dilution were measured by injecting the same carbohydrate solution into HPLC-grade water with 10 mM phosphate buffer solution at pH 7.4, using identical conditions. […]
# [5] = ITC titration with D-xylose; settings: 10 mM phosphate buffer pH 7.4, 298 K
# Protocol: as §3, §4
# [6] = ITC titration with 2-deoxy-D-glucose
# Protocol: as §1
# [7] = ITC titration with D-galactose; settings: 10 mM phosphate buffer pH 7.4, 298 K
# Protocol: as §3, §4
# [8] = ITC titration with D-mannose; settings: 10 mM phosphate buffer pH 7.4, 298 K
# Protocol: as §3, §4
# [9] = ITC titration with D-ribose; settings: 10 mM phosphate buffer pH 7.4, 298 K
# Protocol: as §3, §4
# [10] = ITC titration with D-fructose; settings: 10 mM phosphate buffer pH 7.4, 298 K
# Protocol: as §1
# [11] = ITC titration with D-cellobiose
# Protocol: as §1
# [12] = ITC titration with D-mannitol; settings: 10 mM phosphate buffer pH 7.4, 298 K
# Protocol: as §2
# [13] = ITC titration with gluconate; settings: Gluconate (from D-glucono-δ-lactone); 10 mM phosphate buffer pH 7.4, 298 K
# Protocol: as §2
# [14] = ITC titration with methyl α-D-glucoside; settings: 10 mM phosphate buffer pH 7.4, 298 K
# Protocol: as §2
# [15] = ITC titration with N-acetyl-D-glucosamine; settings: 10 mM phosphate buffer pH 7.4, 298 K
# Protocol: as §2
# [16] = ITC titration with D-maltose; settings: 10 mM phosphate buffer pH 7.4, 298 K
# Protocol: (§5) Isothermal Titration (Micro)Calorimetry (ITC) experiments were performed on a MicroCal iTC200 microcalorimeter and/or a MicroCali VP-ITC. ITC experiments were carried out at 298 K. Saccharide solutions were prepared in HPLC-grade water and allowed to equilibrate overnight if necessary. The sample cell was charged with a known concentration of receptor solution in HPLC-grade water (typically 50 µM - 200 µM). Then, aliquots (typically 1.0 µL) of carbohydrate solution were added and the evolution of heat was followed as a function of time. Heats of dilution were measured by injecting the same carbohydrate solution into HPLC-grade water, using identical conditions. For every addition, the heat of dilution was subtracted from the heat of binding using a MicroCal software programme implemented in ORIGIN 7.0. This gave an XY matrix of heat vs. total guest concentration. […] This method of analysis was used in conjunction with fits for Ka calculated using the MicroCal software to corroborate the results obtained.
# (§6) Isothermal Titration MicroCalorimetry (ITC) experiments were performed on a MicroCal iTC200 microcalorimeter and/or a MicroCali VP-ITC. […] Heats of dilution were measured by injecting the same carbohydrate solution into HPLC-grade water with 10 mM phosphate buffer solution at pH 7.4, using identical conditions. […]
# [17] = ITC titration with L-fucose; settings: 10 mM phosphate buffer pH 7.4, 298 K
# Protocol: as §5, §6
# [18] = ITC titration with uracil; settings: Uracil (PBS) pH 7.4, 298 K
# Protocol: as §5, §6
# [19] = ITC titration with uric acid; settings: Uric Acid (PBS) pH 7.4, 298 K
# Protocol: as §5, §6
# [20] = ITC titration with cytosine; settings: 10 mM phosphate buffer pH 7.4, 298 K
# Protocol: as §5, §6
# [21] = ITC titration with adenosine; settings: 10 mM phosphate buffer pH 7.4, 298 K
# Protocol: as §5, §6
# [22] = ITC titration with paracetamol; settings: 10 mM phosphate buffer pH 7.4, 298 K
# Protocol: as §5, §6
# [23] = ITC titration with ascorbic acid; settings: 10 mM phosphate buffer pH 7.4, 298 K
# Protocol: as §5, §6
# [24] = ITC titration with L-phenylalanine; settings: 10 mM phosphate buffer pH 7.4, 298 K
# Protocol: as §5, §6
# [25] = ITC titration with L-tryptophan; settings: 10 mM phosphate buffer pH 7.4, 298 K
# Protocol: as §5, §6
# [26] = 1H NMR titration with D-glucose
# Protocol: (§7) ^1H-NMR titrations were performed on a Varian VNMR cryogenically cooled S600 spectrometer. Solutions of saccharides in D2O (99.9%), containing receptor at a known concentration to be used in the experiment, were prepared and allowed to equilibrate overnight before use if necessary. Aliquots were then added to an NMR tube containing a known concentration of receptor solution (typically 100 µM - 400 µM). The receptor concentration was therefore held constant while the carbohydrate concentration was increased. The sample tube was shaken after each addition and ^1H-NMR spectra were acquired at 298 K.
# ^1H-NMR titrations were performed on a Varian VNMR cryogenically cooled S600 spectrometer. Solutions of saccharides in D2O (99.9%), containing receptor at a known concentration to be used in the experiment, were prepared and allowed to equilibrate overnight before use if necessary. Aliquots were then added to an NMR tube containing a known concentration of receptor solution (typically 50 µM - 250 µM). The receptor concentration was therefore held constant while the carbohydrate concentration was increased. The sample tube was shaken after each addition, centrifuged and ^1H-NMR spectra were acquired at 298 K.
# If the receptor bound saccharide slower than the NMR sample rate (“slow exchange”), the Ka was determined by analysing the NMR integral of a peak assigned to the Host-Guest complex. The variable X was defined as the integral of an isolated resonance of the complex (typically in the aromatic region) divided by the integral of all the related resonances (typically the whole aromatic region). As X is proportional to fraction of host in the bound state, the change in X could be plotted as a function of the guest concentration to give a curve which could be fitted to a 1:1 binding model to yield the association constant Ka. Mathematically, the fitting process is essentially identical to that employed for binding with fast exchange, except that the integral of a peak due to the complex replaces the chemical shift of a peak due to bound + unbound receptor. The calculation was performed using a non-linear least squares curve-fitting programme implemented within Excel. The programme yields binding constants Ka and limiting X (Xlim) as output. An estimated error for Ka was obtained from individual data points by assuming the determined Ka and Xlim.
# [27] = 1H NMR titration with myo-inositol; settings: D2O, 10 mM phosphate buffer pH 7.4, 298 K
# Protocol: as §7
# (§8) ^1H-NMR titrations were performed on a Varian VNMR cryogenically cooled S600 spectrometer. Solutions of saccharides in D2O (99.9%), containing receptor at a known concentration to be used in the experiment, were prepared and allowed to equilibrate overnight before use if necessary. Aliquots were then added to an NMR tube containing a known concentration of receptor solution (typically 50 µM - 250 µM). The receptor concentration was therefore held constant while the carbohydrate concentration was increased. […]
# (§9) If the receptor bound saccharide slower than the NMR sample rate (“slow exchange”), the Ka was determined by analysing the NMR integral of a peak assigned to the Host-Guest complex. […] An estimated error for Ka was obtained from individual data points by assuming the determined Ka and Xlim.
# [28] = 1H NMR titration with D-cellobiose; settings: [Host]total 110 µM
# Text: The integrals of the peak at 8.02 ppm (denoted with •, see FIG. 31) were made relative to integral of the same peak (8.02 ppm) when all receptor is assumed to be saturated with guest (i.e. the final addition in the titration, row denoted with yellow). These relative integrals are then used to determine the amount of Host-Guest [HG]. This value for [HG] along with calculated values for free host [H]free and free guest [G]free can be used to calculate the Ka at each point in the titration. […] Not all Ka values calculated were included in the averaged Ka value. The earlier integrations are unreliable due to the very small intensity of the peak at 8.02 ppm. The later integrations were also deemed unreliable due to large deviations in baseline of the spectra due to the large excess of guest present. The selected values for Ka used for the average calculation and the averaged Ka itself corroborate with the results obtained from ITC.
# [29] = 1H NMR titration with 2-deoxy-D-glucose; settings: D2O, 10 mM phosphate buffer pH 7.4, 298 K
# Protocol: as §7, §8, §9
# [30] = 1H NMR ROESY of receptor with D-glucose; settings: receptor 2 mM with D-glucose 5 mM (2.5 equivalents) in D2O
# Text: Chemical exchange peaks (black, annotated) link CH protons on β-D-glucose in free and bound states. Signals for bound α-D-glucose were not observed under these conditions.
# [31] = D-Glucose (DMEM cell culture), 10k MWCO, 10 mM phosphate buffer pH 7.4
# [32] = D-Glucose (DMEM salt control), 10 mM phosphate buffer pH 7.4 with added salts
# [33] = D-Glucose (Leibovitz’s L-15 cell culture), 10k MWCO, 10 mM phosphate buffer pH 7.4
# [34] = D-Glucose (human serum), 10k MWCO, 10 mM phosphate buffer
# [35] = D-Glucose, 10 mM phosphate buffer pH 7.4, 298 K
# [36] = Methyl β-D-Glucoside, 10 mM phosphate buffer pH 7.4, 298 K
# [37] = 2-Deoxy-D-Glucose, 10 mM phosphate buffer pH 7.4, 298 K
# [38] = D-Cellobiose, 10 mM phosphate buffer pH 7.4, 298 K
smiles,measurement,setting,value
"CCc1c2c(CC)c3c(CC)c1CNC(=O)Nc1ccc(C(=O)NC(CCC(=O)NC(CCC(=O)[O-])(CCC(=O)[O-])CCC(=O)[O-])(CCC(=O)NC(CCC(=O)[O-])(CCC(=O)[O-])CCC(=O)[O-])CCC(=O)NC(CCC(=O)[O-])(CCC(=O)[O-])CCC(=O)[O-])cc1NC(=O)NCc1c(CC)c(c(CC)c(c1CC)CNC(=O)Nc1cc(C(=O)NC(CCC(=O)NC(CCC(=O)[O-])(CCC(=O)[O-])CCC(=O)[O-])(CCC(=O)NC(CCC(=O)[O-])(CCC(=O)[O-])CCC(=O)[O-])CCC(=O)NC(CCC(=O)[O-])(CCC(=O)[O-])CCC(=O)[O-])ccc1NC(=O)NC3)CNC(=O)Nc1cc(C(=O)NC(CCC(=O)NC(CCC(=O)[O-])(CCC(=O)[O-])CCC(=O)[O-])(CCC(=O)NC(CCC(=O)[O-])(CCC(=O)[O-])CCC(=O)[O-])CCC(=O)NC(CCC(=O)[O-])(CCC(=O)[O-])CCC(=O)[O-])ccc1NC(=O)NC2.[Na+].[Na+].[Na+].[Na+].[Na+].[Na+].[Na+].[Na+].[Na+].[Na+].[Na+].[Na+].[Na+].[Na+].[Na+].[Na+].[Na+].[Na+].[Na+].[Na+].[Na+].[Na+].[Na+].[Na+].[Na+].[Na+].[Na+] [Receptor 1, Triethylbenzene Receptor]",TΔS (Determined by ITC),[1]; [31],3.87 kcal/mol
same,ΔG (Determined by ITC),[1]; [31],-5.11 kcal/mol
same,ΔH (Determined by ITC),[1]; [31],-1.24 kcal/mol
same,TΔS (Determined by ITC),[1]; [32],3.87 kcal/mol
same,ΔG (Determined by ITC),[1]; [32],-5.07 kcal/mol
same,ΔH (Determined by ITC),[1]; [32],-1.2 kcal/mol
same,TΔS (Determined by ITC),[1]; [33],4.06 kcal/mol
same,ΔG (Determined by ITC),[1]; [33],-5.07 kcal/mol
same,ΔH (Determined by ITC),[1]; [33],-1 kcal/mol
same,TΔS (Determined by ITC),[1]; [34],3.66 kcal/mol
same,ΔG (Determined by ITC),[1]; [34],-4.64 kcal/mol
same,ΔH (Determined by ITC),[1]; [34],-0.98 kcal/mol
same,Ka (Determined by ITC),"[1]; D-Glucose pH 6 (PBS), 298 K","17,300 ± 3.8%"
same,TΔS (Determined by ITC),"[1]; D-Glucose pH 6 (PBS), 298 K",5.16 kcal/mol
same,ΔG (Determined by ITC),"[1]; D-Glucose pH 6 (PBS), 298 K",-5.78 kcal/mol
same,ΔH (Determined by ITC),"[1]; D-Glucose pH 6 (PBS), 298 K",-0.621 kcal/mol
same,Ka (Determined by ITC),"[1]; D-Glucose pH 7 (PBS), 298 K","17,800 ± 5.5%"
same,TΔS (Determined by ITC),"[1]; D-Glucose pH 7 (PBS), 298 K",5.26 kcal/mol
same,ΔG (Determined by ITC),"[1]; D-Glucose pH 7 (PBS), 298 K",-5.81 kcal/mol
same,ΔH (Determined by ITC),"[1]; D-Glucose pH 7 (PBS), 298 K",-0.526 kcal/mol
same,Ka (Determined by ITC),"[1]; D-Glucose pH 8 (PBS), 298 K","18,300 ± 1.8%"
same,TΔS (Determined by ITC),"[1]; D-Glucose pH 8 (PBS), 298 K",5.21 kcal/mol
same,ΔG (Determined by ITC),"[1]; D-Glucose pH 8 (PBS), 298 K",-5.81 kcal/mol
same,ΔH (Determined by ITC),"[1]; D-Glucose pH 8 (PBS), 298 K",-0.621 kcal/mol
same,Ka (Determined by ITC),[1]; [35],"18,600 ± 14.3%"
same,TΔS (Determined by ITC),[1]; [35],3.97 kcal/mol
same,ΔG (Determined by ITC),[1]; [35],-5.83 kcal/mol
same,ΔH (Determined by ITC),[1]; [35],-1.86 kcal/mol
same,"Ka by ITC, fit calculated with the supplied ITC software",[1]; D-glucose in 10 mM PBS buffer (pH 6),"19,800 ± 1290 M^-1"
same,"Ka by ITC, fit calculated with the supplied ITC software",[1]; D-glucose in 10 mM PBS buffer (pH 7.4),"19,100 ± 1310 M^-1"
same,"Ka by ITC, fit calculated with the supplied ITC software",[1]; D-glucose in 10 mM PBS buffer (pH 8),"23,400 ± 1850 M^-1"
same,"Ka by ITC, fit calculated with the supplied ITC software",[1]; glucose in H2O,"21,000 ± 2640 M^-1"
same,TΔS (Determined by ITC),[2]; [36],5.07 kcal/mol
same,ΔG (Determined by ITC),[2]; [36],-5.31 kcal/mol
same,ΔH (Determined by ITC),[2]; [36],-0.765 kcal/mol
same,"Ka by ITC, fit calculated with the supplied ITC software",[2]; methyl-β-D-glucoside in H2O,9120 ± 542 M⁻¹
same,TΔS (Determined by ITC),[3],-0.574 kcal/mol
same,ΔG (Determined by ITC),[3],-5.28 kcal/mol
same,TΔS (Determined by ITC),[4],-1.55 kcal/mol
same,ΔG (Determined by ITC),[4],-5.09 kcal/mol
same,ΔH (Determined by ITC),[4],-6.64 kcal/mol
same,TΔS (Determined by ITC),[5],3.23 kcal/mol
same,ΔG (Determined by ITC),[5],-5.14 kcal/mol
same,ΔH (Determined by ITC),[5],-1.91 kcal/mol
same,TΔS (Determined by ITC),[6]; [37],3.2 kcal/mol
same,ΔG (Determined by ITC),[6]; [37],-3.9 kcal/mol
same,ΔH (Determined by ITC),[6]; [37],-0.693 kcal/mol
same,"Ka by ITC, fit calculated with the supplied ITC software",[6]; 2-deoxy-D-glucose in H2O,657 ± 90 M⁻¹
same,TΔS (Determined by ITC),[7],1 kcal/mol
same,ΔG (Determined by ITC),[7],-3.08 kcal/mol
same,ΔH (Determined by ITC),[7],-2.1 kcal/mol
same,TΔS (Determined by ITC),[8],0.14 kcal/mol
same,ΔG (Determined by ITC),[8],-2.94 kcal/mol
same,ΔH (Determined by ITC),[8],-2.82 kcal/mol
same,TΔS (Determined by ITC),[9],-2.32 kcal/mol
same,ΔG (Determined by ITC),[9],-3.18 kcal/mol
same,ΔH (Determined by ITC),[9],-5.5 kcal/mol
same,TΔS (Determined by ITC),[10],-2.27 kcal/mol
same,ΔG (Determined by ITC),[10],-2.53 kcal/mol
same,ΔH (Determined by ITC),[10],-4.78 kcal/mol
same,TΔS (Determined by ITC),[11]; [38],-0.17 kcal/mol
same,ΔG (Determined by ITC),[11]; [38],-2.03 kcal/mol
same,ΔH (Determined by ITC),[11]; [38],-2.2 kcal/mol
same,"Ka by ITC, fit calculated with the supplied ITC software",[11]; cellobiose in H2O,36.6 ± 2.5 M⁻¹
same,Ka (Determined by ITC),[12],0 M⁻¹
same,Ka (Determined by ITC),[13],0 M⁻¹
same,Ka (Determined by ITC),[14],0 M⁻¹
same,Ka (Determined by ITC),[15],0 M⁻¹
same,Ka (Determined by ITC),[16],0 M⁻¹
same,Ka (Determined by ITC),[17],0 M⁻¹
same,Ka (Determined by ITC),[18],0 M⁻¹
same,Ka (Determined by ITC),[19],0 M⁻¹
same,Ka (Determined by ITC),[20],0 M⁻¹
same,Ka (Determined by ITC),[21],0 M⁻¹
same,Ka (Determined by ITC),[22],0 M⁻¹
same,Ka (Determined by ITC),[23],0 M⁻¹
same,Ka (Determined by ITC),[24],0 M⁻¹
same,Ka (Determined by ITC),[25],0 M⁻¹
same,Saturation of receptor on addition of 2 equivalents (0.2 mM) of D-glucose (1H NMR),[26]; D2O with no added salts,did saturate the receptor
same,Saturation of receptor on addition of 2 equivalents (0.2 mM) of D-glucose (1H NMR),"[26]; with MgSO4 (0.8 mM) and CaCl2 (1.8 mM), D2O, 10 mM phosphate buffer pH 7.4, 298 K",did not saturate the receptor
same,Ka (Determined by NMR),[27],7328 ± 7.4%
same,Ka calculated at titration point (NMR),[28]; [Guest]total 20 mM,0.55 M⁻¹
same,Ka calculated at titration point (NMR),[28]; [Guest]total 39 mM,29.0 M⁻¹
same,Ka calculated at titration point (NMR),[28]; [Guest]total 58 mM,31.2 M⁻¹
same,Ka calculated at titration point (NMR),[28]; [Guest]total 96 mM,29.4 M⁻¹
same,Ka calculated at titration point (NMR),[28]; [Guest]total 132 mM,34.9 M⁻¹
same,Ka calculated at titration point (NMR),[28]; [Guest]total 167 mM,81.5 M⁻¹
same,Ka calculated at titration point (NMR),[28]; [Guest]total 251 mM,74.0 M⁻¹
same,Ka calculated at titration point (NMR),[28]; [Guest]total 329 mM,386 M⁻¹
same,Binding implied by 1H NMR spectra (no Ka determinable),[29],binding with intermediate rate of exchange
same,Signals for bound α-D-glucose (ROESY),[30],not observed

# Source: patent US20230365514A1, “MACROCYCLIC COMPOUNDS” (NOVO NORDISK RESEARCH CENTRE OXFORD LIMITED, priority 2017, published 2023)
